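Test compounds were applied to cells in 96-well plates for 48 hours at 5 doses. Abbreviation: GI50, concentration required for 50% inhibition of growth.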 Calls of active or inactive are those of the source. Rule as the data show it: active = GI50 up to about 1.1 µM and inactive = higher.
Legend:
Test in all cases: inhibition of tumour cell growth, NCI panel, 48 h
PC-3 = tested on: PC-3
DU-145 = tested on: DU-145
DMS-114 = tested on: DMS-114
LXFL 529 = tested on: LXFL 529
786-0 = tested on: 786-0
M19-MEL = tested on: M19-MEL
DMS-273 = tested on: DMS-273
SNB-78 = tested on: SNB-78
RXF 631 = tested on: RXF 631

Measured: GI50

COc1ccc(C(=O)c2c(-c3ccccc3NC(=O)C(F)(F)F)[nH]c3ccccc23)cc1
inactive: PC-3 5.92 µM | DU-145 5.18 µM

CN(C)c1ccc(O[Si](Oc2ccc(N(C)C)cc2)(Oc2ccc(N(C)C)cc2)Oc2ccc(N(C)C)cc2)cc1
inactive: DMS-114 46.5 µM | LXFL 529 50.9 µM | 786-0 > 100 µM | M19-MEL > 100 µM

COc1cc(/C=C(/C#N)C(N)=O)ccc1O
inactive: DMS-114 > 100 µM | DMS-273 > 100 µM | SNB-78 > 100 µM | M19-MEL > 100 µM

O=C1C(Cl)N(c2ccc(Cl)cc2Cl)C1c1c[nH]c2ccccc12 (stereo unspecified)
inactive: DMS-114 > 100 µM | LXFL 529 > 100 µM | M19-MEL > 100 µM

COc1cc2c(cc1OC)C1Cc3sccc3CN1CC2 (stereo unspecified)
inactive: RXF 631 > 100 µM | DMS-114 > 100 µM | DMS-273 > 100 µM | LXFL 529 > 100 µM | SNB-78 > 100 µM | M19-MEL > 100 µM

Cn1cnc(/C=C/C#N)c1
inactive: PC-3 > 100 µM

Clc1cc(Cl)cc(C2ON=C(c3ccccc3)N2C23CC4CC(CC(C4)C2)C3)c1 (stereo unspecified)
inactive: PC-3 > 10 µM | DU-145 > 10 µM | 786-0 > 10 µM

COc1cc(-c2ccc(/N=N/c3ccc4c(S(=O)(=O)O)cc(S(=O)(=O)O)c(N)c4c3O)c(OC)c2)ccc1/N=N/c1ccc2c(S(=O)(=O)O)cc(S(=O)(=O)O)c(N)c2c1O
inactive: DMS-114 > 100 µM | DMS-273 > 100 µM | SNB-78 > 100 µM | M19-MEL > 100 µM

CC(C)(C)c1cc(C(P(=O)(c2ccccc2)c2ccccc2)P(=O)(c2ccccc2)c2ccccc2)cc(C(C)(C)C)c1O
inactive: PC-3 2.67 µM | DU-145 3.3 µM | 786-0 2.8 µM

COc1nc(N)c(C(=O)CCl)c(=O)n1C
inactive: RXF 631 15.3 µM | DMS-114 16.8 µM | LXFL 529 13.6 µM | SNB-78 12 µM

N/C(=N\O)N/N=C\c1c(O)cc(O)cc1O
inactive: DMS-114 44.2 µM | DMS-273 14.3 µM | SNB-78 > 100 µM | M19-MEL > 71.8 µM

O=C1c2ccccc2OCC1/C=N/O (stereo unspecified)
inactive: DMS-114 36.4 µM | DMS-273 99.8 µM | SNB-78 > 72.9 µM | M19-MEL 70.1 µM

NC(=O)CCC(N=C(N)c1csc(C2OC(CO)C(O)C2O)n1)C(=O)O (stereo unspecified)
inactive: DMS-114 > 100 µM | DMS-273 > 100 µM | LXFL 529 > 100 µM | SNB-78 > 100 µM

O=C(CCCN1CCC2(CC1)NC(=O)c1ccccc1O2)c1ccc(F)cc1
inactive: PC-3 73.8 µM | DU-145 > 100 µM | 786-0 > 100 µM

CC1(C23CC4CC(CC(C4)C2)C3)n2c(=O)n(-c3ccccc3)c(=O)n2C1(C)C12CC3CC(CC(C3)C1)C2 (stereo unspecified)
inactive: PC-3 > 100 µM | DU-145 > 100 µM

O=C(O)CN(CC(=O)O)C1CCCCC1N(CC(=O)O)CC(=O)NCCN=C=S (stereo unspecified)
inactive: PC-3 > 100 µM | DU-145 > 100 µM

CCOC(=O)C(NC(C)=O)(Nc1ccc(F)cc1)C(F)(F)F (stereo unspecified)
inactive: PC-3 > 100 µM | DU-145 > 100 µM

C=CC12CN(C)C3C4COC(CC41)C1(C(=O)Nc4ccccc41)C32 (stereo unspecified)
inactive: DMS-114 > 144 µM | DMS-273 > 200 µM | SNB-78 176 µM | M19-MEL > 148 µM

O=c1c(Cc2ccc(Cc3c(O)oc4ccccc4c3=O)cc2)c(O)oc2ccccc12
inactive: PC-3 > 100 µM | DU-145 > 100 µM

Cc1[nH]c(=O)[nH]c(=O)c1/C=C/C(=O)NC(CO)C[S+]([O-])Cc1ccccc1 (stereo unspecified)
inactive: DMS-114 > 300 µM | DMS-273 > 300 µM | SNB-78 > 300 µM | M19-MEL > 300 µM

COC(=O)C1=C(O)C(C(=O)OC)[C@@]2(O)[C@@H](C(=O)OC)CC[C@@H]1[C@@H]2C(=O)OC (stereo partly specified)
inactive: DU-145 44.7 µM
